PubChem BioAssay (NCI)
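Five compound concentrations were applied to cells in 96-well plates for 48 hours; endpoints were derived by simple linear interpolation of the resulting dose-response curve. GI50 is the concentration that inhibits growth by half. Definition used: TGI = concentration required for complete inhibition of growth.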

Assays:
Assay in all cases: NCI anticancer screen, dose series, 48 h
HL-60(TB) leukemia = test system: HL-60(TB) leukemia
HCC-2998 colon = test system: HCC-2998 colon
SNB-75 CNS = test system: SNB-75 CNS
DU-145 prostate = test system: DU-145 prostate
786-0 renal = test system: 786-0 renal
CCRF-CEM leukemia = test system: CCRF-CEM leukemia
MALME-3M melanoma = test system: MALME-3M melanoma
MDA-MB-435 = test system: MDA-MB-435
UO-31 renal = test system: UO-31 renal
NCI-H23 lung = test system: NCI-H23 lung

| SMILES | TGI (HL-60(TB) leukemia) [µM] | TGI (HCC-2998 colon) [µM] | TGI (SNB-75 CNS) [µM] | TGI (DU-145 prostate) [µM] | TGI (786-0 renal) [µM] | TGI (CCRF-CEM leukemia) [µM] | TGI (MALME-3M melanoma) [µM] | TGI (MDA-MB-435) [µM] | TGI (UO-31 renal) [µM] | TGI (NCI-H23 lung) [µM] | GI50 (DU-145 prostate) [µM] | GI50 (NCI-H23 lung) [µM] | GI50 (MDA-MB-435) [µM] | GI50 (HL-60(TB) leukemia) [µM] | GI50 (HCC-2998 colon) [µM] | GI50 (SNB-75 CNS) [µM] | GI50 (CCRF-CEM leukemia) [µM] | GI50 (MALME-3M melanoma) [µM] | GI50 (UO-31 renal) [µM] |
| --- | --- | --- | --- | --- | --- | --- | --- | --- | --- | --- | --- | --- | --- | --- | --- | --- | --- | --- | --- |
| Cc1cc(S(=O)(=O)Nc2nnc3c(C(F)(F)F)cc(Cl)cn23)c(S)cc1Cl | > 100 | > 100 | > 100 | > 100 | > 100 | > 100 | > 100 | > 100 | > 100 | – | – | – | – | – | – | – | – | – | – |
| CC(=O)N(CN1C(=O)CCC1C(=O)O)c1ccccc1 (stereo not given) | > 100 | > 100 | > 100 | > 100 | > 100 | > 100 | > 100 | > 100 | > 100 | > 100 | – | – | – | – | – | – | – | – | – |
| Cc1ccc(S(=O)(=O)n2cncc2CO)cc1 | > 100 | > 100 | > 100 | > 100 | > 100 | > 100 | > 100 | > 100 | > 100 | > 100 | – | – | – | – | – | – | – | – | – |
| CCOC(=O)c1ccc(C(=O)C(C(C)=O)C(=O)OC(C)(C)C)n1C (stereo not given) | > 100 | > 100 | > 100 | > 100 | > 100 | > 100 | > 100 | > 100 | > 100 | > 100 | – | – | – | – | – | – | – | – | – |
| O=C(CC(O)(C(F)(F)F)C(F)(F)F)C(CCCl)C(O)(C(F)(F)F)C(F)(F)F (stereo not given) | 86.5 | > 100 | 96.4 | > 100 | > 100 | > 100 | 76.1 | > 100 | 73.3 | 83.9 | – | – | – | – | – | – | – | – | – |
| CCc1nnc(-n2c(C)nc3cc(Cl)ccc3c2=O)s1 | > 100 | > 100 | 92.8 | > 100 | 81.6 | 56.7 | 93.1 | > 100 | > 100 | > 100 | – | – | – | – | – | – | – | – | – |
| O=C1NC(=S)N/C1=C/c1ccccc1O | > 100 | > 100 | – | > 100 | > 100 | > 100 | > 100 | > 100 | > 100 | > 100 | – | – | – | – | – | – | – | – | – |
| CC(NC(=O)/C(=C/c1ccccc1O)NC(=O)c1ccccc1)C(=O)O (stereo not given) | > 100 | 76.2 | 31.1 | > 100 | 68.1 | > 100 | > 100 | > 100 | 34.6 | > 100 | – | – | – | – | – | – | – | – | – |
| CC1=C(C(=O)OCCc2ccc([N+](=O)[O-])cc2)C(c2ccccc2[N+](=O)[O-])C(C(=O)OC(C)C)=C(C)N1 (stereo not given) | 8.48 | > 100 | > 100 | > 100 | 17.9 | 23.2 | > 100 | > 100 | > 100 | > 100 | – | – | – | – | – | – | – | – | – |
| C=CCC(CNC(=O)OCc1ccccc1)O[Si](C)(C)C(C)(C)C (stereo not given) | 51.9 | > 100 | > 100 | > 100 | 98.7 | > 100 | – | > 100 | 63.1 | > 100 | – | – | – | – | – | – | – | – | – |
| Clc1nc(-[n+]2ccc(-c3ccncc3)cc2)nc(Nc2ccccc2)c1Cl | > 100 | > 100 | – | > 100 | > 100 | 90.2 | > 100 | > 100 | > 100 | > 100 | – | – | – | – | – | – | – | – | – |
| CC(CCC(=O)O)[C@H]1CCC2[C@H]3C(CC[C@@]21C)[C@@]1(C)CCC(O)C[C@H]1C[C@@H]3O (stereo not given in full) | > 100 | > 100 | > 100 | > 100 | > 100 | > 100 | > 100 | > 100 | > 100 | > 100 | – | – | – | – | – | – | – | – | – |
| C/C(=N\NC(N)=O)C(CN1CCCCC1)C(c1ccccc1)c1c(O)c2ccccc2oc1=O (stereo not given) | > 72.9 | > 100 | > 100 | > 100 | > 59.5 | > 100 | > 100 | > 100 | > 100 | > 100 | > 100 | > 100 | > 100 | – | – | – | – | – | – |
| CCOC(=O)c1cc2c(OC(C)=O)ccc(OC(C)=O)c2s1 | 2.97 | 22.2 | 5.62 | 17.1 | 6.24 | 5.29 | 3.6 | 7.38 | 2.76 | 5.51 | – | – | – | – | – | – | – | – | – |
| C/C(=C/CO[Si](C)(C)C(C)(C)C)C(=O)N(C)c1ccccc1I | 32 | 28.3 | 33.4 | 36.7 | 31.7 | 43 | 28.3 | 33.7 | 28 | 41.2 | – | – | – | – | – | – | – | – | – |
| COC(=O)C1=C(O)C(C(=O)OC)[C@@]2(O)[C@@H](C(=O)OC)C(c3ccc(OC(=O)/C(=C/c4ccc(Cl)cc4)c4ccc(Cl)cc4)cc3)C[C@@H]1[C@@H]2C(=O)OC (stereo not given in full) | > 100 | – | > 100 | > 100 | > 100 | > 100 | > 100 | > 100 | 34.1 | > 100 | – | – | – | – | – | – | – | – | – |

| SMILES | TGI (HL-60(TB) leukemia) [µM] | TGI (HCC-2998 colon) [µM] | TGI (SNB-75 CNS) [µM] | TGI (DU-145 prostate) [µM] | TGI (786-0 renal) [µM] | TGI (CCRF-CEM leukemia) [µM] | TGI (MALME-3M melanoma) [µM] | TGI (MDA-MB-435) [µM] | TGI (UO-31 renal) [µM] | TGI (NCI-H23 lung) [µM] | GI50 (DU-145 prostate) [µM] | GI50 (NCI-H23 lung) [µM] | GI50 (MDA-MB-435) [µM] | GI50 (HL-60(TB) leukemia) [µM] | GI50 (HCC-2998 colon) [µM] | GI50 (SNB-75 CNS) [µM] | GI50 (CCRF-CEM leukemia) [µM] | GI50 (MALME-3M melanoma) [µM] | GI50 (UO-31 renal) [µM] |
| --- | --- | --- | --- | --- | --- | --- | --- | --- | --- | --- | --- | --- | --- | --- | --- | --- | --- | --- | --- |
| N#Cc1c(NC(=O)c2ccccc2)sc2c1CCC(=O)C2 | 2.96 | 10.3 | 6.2 | > 100 | – | > 100 | 3.92 | 3.6 | 2.24 | 6.99 | 2.98 | 0.768 | 0.594 | 0.309 | 1.82 | 1.64 | 0.43 | 1.65 | 1.05 |
| N#CC1=C(N)C(C#N)(C#N)C(c2ccc(F)cc2)C=C1C1CC1 (stereo not given) | 34.8 | 25.4 | 18.1 | 25.6 | 21.9 | 31.7 | 26.8 | 12.4 | 27.2 | 13.8 | – | – | – | – | – | – | – | – | – |
| CCOC(=O)c1nc2c3c(ncn2n1)Oc1c(c(-c2ccccc2)nn1-c1ccccc1)C3c1ccc(Cl)cc1 (stereo not given) | > 100 | > 100 | > 100 | > 100 | > 100 | > 100 | > 100 | > 100 | > 100 | > 100 | – | – | – | – | – | – | – | – | – |
| CCOC(=O)c1ccc2nc(NC(=O)COC(=O)CSc3nc(C)cc(C)n3)sc2c1 | 33.9 | – | 60.4 | > 100 | > 100 | 15.5 | > 100 | > 100 | 38.5 | > 100 | – | – | – | – | – | – | – | – | – |
| O=C(Nn1c(-c2ccccc2)nc2ccccc2c1=O)c1ccccn1 | > 100 | > 100 | > 100 | > 100 | > 100 | > 100 | > 100 | > 100 | > 100 | > 100 | – | – | – | – | – | – | – | – | – |
| Cc1nnc2cc(C(=O)O)c3ccccc3n2c1=O | > 10 | > 10 | > 10 | > 10 | > 10 | > 10 | > 10 | > 10 | > 10 | > 10 | – | – | – | – | – | – | – | – | – |
| O=C(C1=C(C(=O)c2ccccc2)SC2(S1)C(C(=O)c1ccccc1)=C(C(=O)c1ccccc1)Sc1c2ssc1=O)c1ccccc1 | 69.8 | > 100 | > 100 | > 100 | > 100 | > 100 | > 100 | > 100 | > 100 | > 100 | – | – | – | – | – | – | – | – | – |
| CC(=O)O[C@H]1C#C/C=C\C#CC[C@@H]2C(=O)N(C(=O)OC(C)(C)C)[C@@H]12 | 25.6 | > 67.5 | > 72.9 | 54.8 | 51.7 | 6.77 | > 100 | > 100 | 31.2 | > 69 | – | – | – | – | – | – | – | – | – |
| OC1CCCC1C(O)(C(F)(F)F)C(F)(F)F (stereo not given) | > 100 | > 100 | > 100 | > 100 | > 100 | > 100 | > 100 | > 100 | > 100 | > 100 | – | – | – | – | – | – | – | – | – |
| Nc1ccc2c(c1)C(=O)c1ccccc1-2 | > 100 | > 100 | > 100 | > 100 | > 100 | > 100 | > 100 | > 100 | > 100 | > 100 | – | – | – | – | – | – | – | – | – |
| O=C(N/N=C\c1cccc2ccccc12)Nc1ccc([N+](=O)[O-])cc1 | > 100 | > 70.3 | > 100 | > 60.7 | > 37.8 | > 100 | > 69.4 | > 100 | > 61.8 | > 60.2 | – | – | – | – | – | – | – | – | – |
| O=C1/C(=C/c2ccccc2)CCc2ccc(Cl)nc21 | 0.705 | 48.4 | 47.5 | 24.4 | 21.8 | 5.75 | 27.2 | 30.4 | 20.2 | 45.5 | – | – | – | – | – | – | – | – | – |
| Cc1ccc2nc3c(C)c(Cl)c(=O)cc-3sc2c1 | 26.7 | > 100 | 56.3 | > 100 | > 100 | 56.8 | > 71.5 | 39.7 | 67.4 | 34.3 | – | – | – | – | – | – | – | – | – |
| O=C(O)/C=C(/CC(=O)O)C(=O)O | 42.9 | 90.4 | 33.1 | 45.7 | 33.3 | 37.2 | 37.3 | 42.6 | 33.7 | 57.2 | – | – | – | – | – | – | – | – | – |
| Cc1cc2ccccc2n1CC(=O)NCC(C)C | > 100 | > 100 | > 100 | > 100 | > 100 | > 100 | > 100 | > 100 | > 100 | > 100 | – | – | – | – | – | – | – | – | – |
| COc1ccc(C(O)c2ccc3c(c2)OCO3)cc1 (stereo not given) | > 100 | > 100 | > 100 | > 100 | > 100 | > 100 | > 100 | > 100 | > 100 | > 100 | – | – | – | – | – | – | – | – | – |
